Values quoted from earlier work, collected in paper PMC6311893, “Computational prediction of plasma protein binding of cyclic peptides from small molecule experimental data using sparse modeling techniques” (BMC Bioinformatics, 2018).

Tested on: plasma protein
Conditions: fraction bound to plasma protein; small molecule dataset, sheet 1-SM (Set Dte = test, Dtr = training); ref Ingle et al.; cited from earlier work

Compared with `NC(=O)N1c2ccccc2CC(O)c2ccccc21` (centres unmarked) [10-hydroxycarbazepine], `CNCCCC12CCC(c3ccccc31)c1ccccc12` [Maprotiline] is higher in “PPB (fb)” value: 0.62 for the first, 0.89 for the second.

Compared with `O=C1CN(/N=C/c2ccc(-c3ccc([N+](=O)[O-])cc3)o2)C(O)=N1` [dantrolene], `CN1C[C@H](C(=O)N[C@]2(C)O[C@@]3(O)[C@@H]4CCCN4C(=O)[C@H](Cc4ccccc4)N3C2=O)C[C@@H]2c3cccc4[nH]cc(c34)C[C@H]21` [dihydroergotamine] is higher in “PPB (fb)” value: 0.89 for the first, 0.93 for the second.

First: O=C1c2c(O)ccc(O)c2C(=O)c2c(NCCNCCO)ccc(NCCNCCO)c21 [Mitoxantrone]
Second: Cn1c(=O)c2c(ncn2CCCNCC(O)c2cc(O)cc(O)c2)n(C)c1=O (centres unmarked) [reproterol]
The “PPB (fb)” value of the first is higher: 0.8 for the first, 0.5 for the second.

Going from `COc1ccc(O)cc1C(C)(C)C` [2-butyl-4-hydroxyanisole] to `CC(c1cc2ccccc2s1)N(O)C(N)=O` (centres unmarked) [zileuton], the “PPB (fb)” value rises from 0.85 to 0.93.

Compared with `CN(C)CCN(C)N1C=C(c2ccccc2)C2C=CC=CC21` (centres unmarked) [Binedaline], `CCN(CC)CCCN(c1ccccc1)C1Cc2ccccc2C1` [aprindine] is lower in “PPB (fb)” value: 0.96 for the first, 0.95 for the second.

Going from `Cc1cccc(C)c1OCC(=O)N[C@@H](Cc1ccccc1)[C@@H](O)C[C@H](Cc1ccccc1)NC(=O)[C@H](C(C)C)N1CCCNC1=O` [lopinavir] to `CC(=O)O[C@@]12CO[C@@H]1C[C@H](O)[C@@]1(C)C(=O)[C@H](O)C3=C(C)[C@@H](OC(=O)[C@H](O)[C@@H](NC(=O)OC(C)(C)C)c4ccccc4)C[C@@](O)([C@@H](OC(=O)c4ccccc4)[C@H]21)C3(C)C` [Docetaxel], the “PPB (fb)” value falls from 0.99 to 0.96.

Going from `CC[C@H]1OC(=O)[C@H](C)[C@@H](O[C@H]2C[C@@](C)(OC)[C@@H](O)[C@H](C)O2)[C@H](C)[C@@H](O[C@@H]2O[C@H](C)C[C@H](N(C)C)[C@H]2O)[C@](C)(O)C[C@@H](C)/C(=N\OCOCCOC)[C@H](C)[C@@H](O)[C@]1(C)O` [roxithromycin] to `C[C@@H]1[C@H](O)[C@@H](C)/C=C/C=C/C=C/C=C/C=C/C=C/C=C/[C@H](O[C@@H]2O[C@H](C)[C@@H](O)[C@H](N)[C@@H]2O)C[C@@H]2O[C@](O)(C[C@@H](O)C[C@@H](O)[C@H](O)CC[C@@H](O)C[C@@H](O)CC(=O)O[C@H]1C)C[C@H](O)[C@H]2C(=O)O` [amphotericin-B], the “PPB (fb)” value rises from 0.78 to 0.94.

First: COc1cc(N)c(Cl)cc1C(=O)NC1CCN(CCCOc2ccc(F)cc2)CC1OC (centres unmarked) [cisapride]
Second: CCc1c2c(nc3ccc(OC(=O)N4CCC(N5CCCCC5)CC4)cc13)-c1cc3c(c(=O)n1C2)COC(=O)[C@]3(O)CC [Irinotecan]
The “PPB (fb)” value of the first is higher: 0.98 for the first, 0.57 for the second.

Compared with `CCN(CC)C(=O)N1CCN(C)CC1` [diethylcarbamazine], `CC1(C)S[C@@H]2[C@H](/N=C/N3CCCCCC3)C(=O)N2[C@H]1C(=O)O` [amdinocillin] is higher in “PPB (fb)” value: 0 for the first, 0.14 for the second.

First: O=C(O)[C@@H]1C[C@@H](C2CCCCC2)CN1C(=O)CP(=O)(O)CCCCc1ccccc1 [Fosinoprilat]
Second: CC1OC2(CS1)CN1CCC2CC1 (centres unmarked) [cevimeline]
The “PPB (fb)” value of the first is higher: 0.99 for the first, 0.15 for the second.

Compared with `C[C@H]1O[C@H](O[C@H]2[C@H](O)[C@@H](O)[C@@H](O[C@H]3[C@H](O)[C@@H](O)C(O)O[C@@H]3CO)O[C@@H]2CO)[C@H](O)[C@@H](O)[C@@H]1N[C@H]1C=C(CO)[C@@H](O)[C@H](O)[C@H]1O` (some centres unmarked) [acarbose], `NS(=O)(=O)c1cc(-c2nnn[nH]2)c(NCc2cccs2)cc1Cl` [azosemide] is higher in “PPB (fb)” value: 0.15 for the first, 0.96 for the second.

Same assay, conditions: fraction bound to plasma protein; small molecule dataset, sheet 1-SM, Set Dtr; ref Ingle et al.; cited from earlier work

Going from `NS(=O)(=O)c1cc(C(=O)O)cc(N2CCCC2)c1Oc1ccccc1` [Piretanide] to `O=C(c1ccccc1)c1ccc2n1CCC2C(=O)O` (centres unmarked) [Ketorolac], the “PPB (fb)” value rises from 0.94 to 0.99.

Compared with `O=C(NC1CCN(CCc2c[nH]c3ccccc23)CC1)c1ccccc1` [Indoramin], `COc1cc(C(=O)NS(=O)(=O)c2ccccc2C)ccc1Cc1cn(C)c2ccc(NC(=O)OC3CCCC3)cc12` [zafirlukast] is higher in “PPB (fb)” value: 0.83 for the first, 0.99 for the second.

Compared with `COc1nc(N)nc2c1ncn2[C@@H]1O[C@H](CO)[C@@H](O)[C@@H]1O` [Nelarabine], `COc1ccc([C@@H]2Sc3ccccc3N(CCN(C)C)C(=O)[C@@H]2OC(C)=O)cc1` [Diltiazem] is higher in “PPB (fb)” value: 0.2 for the first, 0.81 for the second.

First: Cc1cccc(C)c1NC(=O)NCCCNC(C)C [Recainam]
Second: Cc1c(Cl)cccc1Nc1ccccc1C(=O)O [tolfenamic acid]
The “PPB (fb)” value of the first is lower: 0.14 for the first, 0.99 for the second.

Going from `CCC(O)(C(=O)O)c1cc2n(c(=O)c1CO)Cc1cc3c(CN(C)C)c(O)ccc3nc1-2` (centres unmarked) [Topotecan Carboxylic Acid] to `CN1CCN(CCCCN2C(=O)CN(/N=C/c3ccc(-c4ccc(Cl)cc4)o3)C2=O)CC1` [Azimilide], the “PPB (fb)” value rises from 0.07 to 0.94.

First: O=c1n(CCCN2CCN(c3cccc(Cl)c3)CC2)nc2ccccn12 [trazodone]
Second: O=C1c2cccc3c2[C@H](CCC3)CN1[C@@H]1CN2CCC1CC2 [Palonosetron]
The “PPB (fb)” value of the first is higher: 0.92 for the first, 0.62 for the second.

Same assay, conditions: fraction bound to plasma protein; small molecule dataset, sheet 1-SM; ref Ingle et al.; cited from earlier work

First: CCC1(c2ccccc2)C(=O)NCNC1=O [primidone]
Second: Cc1ccc(S(=O)(=O)NC(=O)NN2CC3CCCC3C2)cc1 (centres unmarked) [gliclazide]
The “PPB (fb)” value of the first is lower: 0.2 for the first, 0.91 for the second.

Compared with `CCS(=O)(=O)CCn1c([N+](=O)[O-])cnc1C` [Tinidazole], `CC1(C)SC2C(NC(=O)COc3ccc(F)cc3)C(=O)N2C1C(=O)O` (centres unmarked) [penicillin54] is higher in “PPB (fb)” value: 0.15 for the first, 0.81 for the second.

Compared with `C=CC[C@@H]1/C=C(\C)C[C@H](C)C[C@H](OC)[C@H]2O[C@@](O)(C(=O)C(=O)N3CCCC[C@H]3C(=O)O[C@H](/C(C)=C/[C@@H]3CC[C@@H](O)[C@H](OC)C3)[C@H](C)[C@@H](O)CC1=O)[C@H](C)C[C@@H]2OC` [Tacrolimus], `CS(=O)(=O)c1ccc(C2=C(c3ccccc3)C(=O)OC2)cc1` [rofecoxib] is lower in “PPB (fb)” value: 0.99 for the first, 0.87 for the second.

Compared with `CCCOC(C(=O)OC1CCN(C)CC1)(c1ccccc1)c1ccccc1` [propiverine], `CC(=O)OCC(CCn1cnc2cnc(N)nc21)COC(C)=O` [famciclovir] is lower in “PPB (fb)” value: 0.9 for the first, 0.15 for the second.

Compared with `O=C(O)COc1ccc(C(=O)c2cccs2)c(Cl)c1Cl` [tienilic acid], `CC1(C)SC2C(NC(=O)COc3cccc(F)c3)C(=O)N2C1C(=O)O` (centres unmarked) [penicillin53] is lower in “PPB (fb)” value: 0.99 for the first, 0.83 for the second.

Going from `c1ccc2c(c1)Sc1ccccc1N2CC1CN2CCC1CC2` (centres unmarked) [mequitazine] to `COc1cc(Cc2cnc(N)nc2N)c2c(c1OC)OC(C1CC1)C=C2` (centres unmarked) [iclaprim], the “PPB (fb)” value rises from 0.9 to 0.93.

Going from `CC1=C(CC(=O)O)c2cc(F)ccc2/C1=C\c1ccc([S+](C)[O-])cc1` (centres unmarked) [sulindac] to `CN(C)S(=O)(=O)C1=CC2C(C=C1)Sc1ccccc1N2CCCN1CCC(CCO)CC1` (centres unmarked) [Pipotiazine], the “PPB (fb)” value falls from 0.93 to 0.45.

First: lanatoside-C
Second: CCN(CC)CCNC(=O)c1ccc(NS(C)(=O)=O)cc1 [Sematilide]
The “PPB (fb)” value of the first is higher: 0.25 for the first, 0.04 for the second.

First: CCOCCC(=O)NC1C(=O)N2C1SC(C)(C)C2C(=O)O (centres unmarked) [penicillin11]
Second: C#C[C@]1(O)CC[C@H]2[C@@H]3CCc4cc(OC)ccc4[C@H]3CC[C@@]21C [mestranol]
The “PPB (fb)” value of the first is lower: 0.25 for the first, 0.98 for the second.

First: CCn1cc(C(=O)O)c(=O)c2cc(F)c(N3CCNCC3)cc21 [norfloxacin]
Second: CC(C)(C)c1ccc(C(O)CCCN2CCC(C(O)(c3ccccc3)c3ccccc3)CC2)cc1 (centres unmarked) [terfenadine]
The “PPB (fb)” value of the first is lower: 0.15 for the first, 0.84 for the second.

Going from `Cc1ccccc1C(OCCN(C)C)c1ccccc1` (centres unmarked) [orphenadrine] to `CCCN[C@H]1CCc2nc(N)sc2C1` [pramipexole], the “PPB (fb)” value falls from 0.95 to 0.15.

Same assay, conditions: human, plasma; cited from earlier work

Going from `CCNC(=O)[C@@H]1CCCN1C(=O)[C@H](CCCNC(=N)N)NC(=O)[C@H](CC(C)C)NC(=O)[C@@H](COC(C)(C)C)NC(=O)[C@H](Cc1ccc(O)cc1)NC(=O)[C@H](CO)NC(=O)[C@H](Cc1c[nH]c2ccccc12)NC(=O)[C@H](Cc1cnc[nH]1)NC(=O)[C@@H]1CCC(=O)N1` [buserelin] to `CCNC(=O)[C@@H]1CCCN1C(=O)[C@H](CCCNC(=N)N)NC(=O)[C@H](CC(C)C)NC(=O)[C@@H](CC(C)C)NC(=O)[C@H](Cc1ccc(O)cc1)NC(=O)[C@H](CO)NC(=O)[C@H](Cc1c[nH]c2ccccc12)NC(=O)[C@H](Cc1c[nH]cn1)NC(=O)[C@@H]1CCC(=O)N1` [Leuprolide], the “PPB (fb)” value rises from 0.15 to 0.46.

Same assay, conditions: plasma; cited from earlier work

First: CN[C@@H](C)[C@@H](O)c1ccccc1 [pseudoephedrine]
Second: CC(=O)OC1C(O)CC(OC2C(O)CC(OC3C(O)CC(OC4CCC5(C)C(CCC6C5CC(O)C5(C)C(C7=CC(=O)OC7)CCC65O)C4)OC3C)OC2C)OC1C (stereo not drawn) [beta-acetyldigoxin]
The “PPB (fb)” value of the first is lower: 0 for the first, 0.15 for the second.

First: CNC(C)C1CCC(N)C(OC2C(N)CC(N)C(OC3OCC(C)(O)C(NC)C3O)C2O)O1 (centres unmarked) [Gentamicin]
Second: Felodipine
The “PPB (fb)” value of the first is lower: 0.1 for the first, 1 for the second.

Going from `CC(=O)[C@H]1CC[C@H]2[C@@H]3CC[C@@H]4C[C@H](O)CC[C@]4(C)[C@H]3CC[C@]12C` [Eltanolone] to `COC(=O)[C@H]1[C@@H](OC(=O)c2ccccc2)C[C@@H]2CC[C@H]1N2C` [Cocaine], the “PPB (fb)” value falls from 0.99 to 0.89.

Going from `O=C(C[S+]([O-])C(c1ccccc1)c1ccccc1)NO` (centres unmarked) [adrafinil] to `Cc1cc(=O)n(-c2ccccc2)n1C` [Antipyrine], the “PPB (fb)” value falls from 0.8 to 0.07.

Going from `C[C@]12CC[C@H](O)C[C@H]1CC[C@@H]1[C@@H]2CC[C@]2(C)[C@@H](C3=CC(=O)OC3)CC[C@]12O` [Digitoxigenin] to `CN(C)Cc1nnc2n1-c1ccc(Cl)cc1C(c1ccccc1)=NC2` [Adinazolam], the “PPB (fb)” value falls from 0.93 to 0.69.

First: trichloroethanol
Second: CC1(C)S[C@@H]2[C@H](NC(=O)[C@H](N)c3ccccc3)C(=O)N2[C@H]1C(=O)O [Ampicillin]
The “PPB (fb)” value of the first is higher: 0.35 for the first, 0.16 for the second.

First: CCCN(CCC)CCc1cccc2c1CC(=O)N2 [ropinirole]
Second: Doxycycline
The “PPB (fb)” value of the first is lower: 0.4 for the first, 0.89 for the second.

Going from `CN1C(=O)CN=C(c2ccccc2F)c2cc([N+](=O)[O-])ccc21` [Flunitrazepam] to `CNC1(c2ccccc2Cl)CCCCC1=O` (centres unmarked) [Ketamine], the “PPB (fb)” value falls from 0.81 to 0.44.
